In patent publication US5216003A, “Diacid-containing benzimidazole compounds for treatment of neurotoxic injury” (G. D. Searle & Co., priority 1992, dated 1993):

Legend:
[1] = test system: NMDA receptor (rat brain hippocampal tissue); conditions: evaluation of CPP binding to rat brain hippocampal tissue; Murphy et al 1987; cited from earlier work
[2] = test system: motor function; experiment: inverted screen test for motor impairment; assay type: in vivo, male CD-1 mice; conditions: for Exhibiting Motor Impairments (% of Mice): 56 mg/kg s.c., n = 10, vehicle 10 (n = 20)
Procedure: This assay was used to determine the extent of in vivo protection against convulsions afforded by compound of the invention to mice subjected to artifically-induced convulsive conditions. Naive male CD-l mice (20-30 grams body weight) from Charles River Laboratories, Portage Mich. served as subjects. The mice had ad libitum access to food and water prior to testing and were maintained on a 12 hour light/12 hour dark schedule with testing during the light portion of the cycle. The mice were tested for motor impairment by use of the inverted screen test approximately 5 minutes prior to anticonvulsant testing. The inverted screen apparatus was similar to that described by Coughenour et al [Pharmacol. Biochem. Behav., 6, 351-353 (1977)]. Mice were placed on 13×13 cm pieces of #4 wire mesh screen which were mounted horizontally. The screens were then slowly inverted. […] Tonic hindlimb extensor seizures were then produced by application of electroconvulsive shock through concave electrodes to the eyeballs. Both the eyeballs and the electrodes were moistened with 0.9% saline to improve conductivity. The ECS stimulus was generated by use of a Grass model S48D stimulator with a Grass model CCUlA constant current unit in series with the output. Stimulation consisted of 10 msec pulses of a 60 pps single phase square wave for a duration of 200 msec. The current was held constant at 15 mA. Compound of Example #1 was suspended in a vehicle of 0.9% saline with a few drops of PG-Tween added. PG-Tween is a 1:1 mixture of propylene glycol and Tween 80. The Example #1 compound or vehicle was administered s.c. in a volume of 10 ml/kg body weight 30 minutes prior to application of the ECS stimulus. […] There were 10 mice in each treatment group.

[3] = test system: tonic hindlimb extensor seizures; experiment: Anticonvulsant Assay (electroconvulsive shock); assay type: in vivo, male CD-1 mice; conditions: 30 min prior to ECS; for Protected from ECS (% of Mice): 56 mg/kg s.c., n = 10, vehicle 5 (n = 20)
[4] = biological target: [3H]MK-801 binding in rat SPM; experiment: [3H]MK-801 Binding assay; conditions: 5.0 nM [3H]MK-801, 10.0 nM L-glutamate, pH 7.4, 25 °C, 30 min
Procedure: Modulation of [^3 H]MK-801 binding was performed using Triton X-100 (0.04% v/v) treated rat SPM that had been extensively washed. Assay incubations were at 25° C. for 30 min. and contained 5.0 nM [^3 H]MK-801, L-glutamate (10.0 nM), and various concentrations of the tested compound in 50 mM Tris/acetate, pH 7.4. The assay was stopped by rapid filtration, using Brandel MB-48 Harvester, through Whatman GF/B filters treated with 0.05% polyethylenimine and the samples washed four times with 2.0 mL cold buffer. The radioactivity associated with the filter was determined by liquid scintillation spectrometry. Nonspecific binding was defined using 60 μM MK-801. IC50 were determined using a logit-log transformation of the binding data.

[5] = biological target: NMDA receptor (N-methyl-D-aspartate-specific L-[3H]glutamate recognition site in synaptic plasma membranes); experiment: NMDA-Selective Glutamate Binding Assay, L-[3H]glutamate; set-up: species or system rat; conditions: 12.5 nM L-[3H]glutamate, pH 7.4, 0-4 °C, 10 min; read-out: [3H]GLU Ki
Procedure: (§1) Synaptic plasma membranes (SPM) were prepared as previously described [Monahan, J. B. and Michel, J., "Identification and Characterization of an N-methyl-D-aspartate-specific L[^3 H]glutamate Recognition Site in Synaptic Plasma Membranes", J. Neurochem., 48, 1699-1708 (1987)]. The SPM were stored at a concentration of 10-15 mg/ml in 0.32M sucrose, 0.5 mM EDTA, 1 mM MgSO4, 5 mM Tris/SO4, pH 7.4, under liquid nitrogen. The identity and purity of the subcellular fractions were confirmed by both electron microscopy and marker enzymes. Protein concentrations were determined by using a modification of the method of Lowry [Ohnishi, S. T. and Barr, J. K., "A Simplified Method of Quantitating Proteins Using the Biuret and Phenol Reagents", Anal. Biochem., 86, 193-197 (1978)]. The SPM were treated identically for the [^3 H]AMPA (QUIS), [^3 H]kainate and sodium-dependent L-[^3 H]-glumatate binding assays. […] Beckman MP scintillation cocktail containing 7 mL/l acetic acid was then added and the samples counted on a Beckman LS 5800 or 3801 liquid scintillation counter with automatic corrections for quenching and counting efficiency. […] Radioligand binding to the synaptic plasma membranes was analyzed using Scatchard and Hill transformations and the Ki values of the compounds determined using logit-log transformations. […]

[6] = biological target: Kainate (KA) receptor; experiment: [3H]kainate (KA) binding assay on synaptic plasma membranes; set-up: species or system rat; conditions: 0.5 nM [3H]kainate, pH 7.4, 0-4 °C, 60 min
Procedure: as §1

[7] = test system: pyramidal cells in CA1 of the hippocampus; experiment: Forebrain Ischemia Assay (bilateral carotid occlusion, neuron count); assay type: in vivo, Mongolian gerbil; conditions: for # of Neurons/Field: 7 days
Procedure: This assay was used to determine the extent of protection afforded by compound of the invention to neural brain cells subjected to ischemic conditions. Male Mongolian gerbils, 50-70 gm, were used as subjects. Compound Example #1 was injected i.p. 30 minutes prior to carotid occlusion into 6 gerbils […]. In preparation for surgical procedures, the animals were lightly anesthetized with methoxyflurane and placed upside down on a heated pad with their snout within a nosecone. A 70:30 mixture of nitrous oxide and oxygen containing 0.5% halothane was circulated through the nosecone to provide continuous anesthesia throughout the surgical procedure. A midline incision was made in the neck and the carotid arteries were exposed. A length of suture thread was placed under each carotid. The thread was then tightened around each carotid and pressure applied to the thread to insure flow was occluded. Flow was occluded for 4-5 minutes and then the thread was removed. The carotids were visually inspected to confirm that reflow had occurred. The wound was then closed with autoclips and the gerbils allowed to recover. Following surgery, the gerbils were kept alive for 7 days. They were anesthetized with 100 mg/kg sodium pentobarbital and perfused transcardially with saline (with heparin) followed by buffered formalin. The brain was removed, trimmed and prepared for histological processing. Sections (10 microns) were stained with thionin. At 7 days following this type of transient global forebrain ischemia, damaged neurons in the vulnerable CAl region of the hippocampus have degenerated and been cleared away by glia. Quantification of the resulting lesion is made by counting the pyramidal cell somata in a 0.5 mm length of CAl of the hippocampus on the section corresponding to P 1.7 mm in the gerbil brain atlas. […] The effects of compound of Ex. #1 were assessed by comparing the number of neural cells found in the hippocampus of subjects treated with Ex. #1 compound with the cell number found in the appropriate control groups. […]

Row | Structure (SMILES) | NMDA antagonism [1] | Exhibiting Motor Impairments (% of Mice) ([2]; Test A) | Exhibiting Motor Impairments (% of Mice) ([2]; Test B) | motor function ([2]; s.c., similar dose range as anticonvulsant effect) | Protected from ECS (% of Mice) ([3]; Test A) | Protected from ECS (% of Mice) ([3]; Test B) | protection against tonic hindlimb extensor seizures ([3]; s.c.) | Ki [4] [µM] | Ki [5] [µM] | KA Ki [6] [µM] | # of Neurons/Field ([7]; 300 mg/kg i.p. 30 min prior to carotid occlusion, control 19.8, p < 0.01) | # of Neurons/Field ([7]; 500 mg/kg i.p. 30 min prior to carotid occlusion, control 39.8, p < 0.005) | cell loss ([7]; i.p., 300 and 500 mg/kg, vs control, Mann-Whitney U test)
1 | O=C(O)C1CN(CCCP(=O)(O)O)CCN1 (stereo not shown) [CPP, 3-(2-carboxypiperazin-4-yl)propyl-1-phosphonic acid] | potent and selective NMDA antagonist | – | – | – | – | – | – | – | – | – | – | – | –
2 | O=C(O)c1nc2cccc(CP(=O)(O)O)c2[nH]1 [Example 1, 2-carboxy-4-phosphonomethylbenzimidazole] | – | 10 % of Mice | 0 % of Mice | impaired motor function in a similar dose range | 50 % of Mice | 20 % of Mice | protected against tonic hindlimb extensor seizures in a dose-dependent fashion | 3.9 | 1.6 | > 100 | 44.3 # of Neurons/Field | 137.4 # of Neurons/Field | significantly reduced
